Reference: patent US20070254882A1, “Sulfamide Derivatives and Pharmaceutical Composition for Upregulation of Lipid Metabolism Comprising Same” (CRYSTAL GENOMICS, INC., priority 2004, published 2007)

What was measured:
human PPAR α = biological target: T1, human PPAR α (Homo sapiens, UniProt Q07869); assay: Exogeneous PPAR α agonist assay (GAL4 DNA binding domain/PPAR α ligand binding domain, luciferase) in 293T cells; assay type: cell-based; parameters: scale not given here; conditions: 25 μM compound, 48 hours, luciferase activity increase relative to the control
T1 construct: expressed in transfected cells; host or cells: HepG2 (ATCC HB-8065) or 293T cells (ATCC CRL-1573)
T1 sequence (Q07869 239-466 limits assumed): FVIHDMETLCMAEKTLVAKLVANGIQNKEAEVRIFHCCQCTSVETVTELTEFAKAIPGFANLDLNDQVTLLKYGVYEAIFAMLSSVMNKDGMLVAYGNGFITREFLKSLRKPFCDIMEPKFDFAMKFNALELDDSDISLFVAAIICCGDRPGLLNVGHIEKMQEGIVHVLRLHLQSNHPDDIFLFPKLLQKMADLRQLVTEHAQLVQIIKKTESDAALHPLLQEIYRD
Outline: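 HepG2 or 293T cells (2×10^4/well) lipofectamine-transfected 3 hours with PPAR α, UAS firefly-luciferase and Renilla-luciferase constructs. Compounds then added at 25 μM final and incubated 48 hours at 37° C. PPAR α activation measured as dual firefly/Renilla luciferase luminescence.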

ob/ob mice [1] = assay: Anti-obesity test: feed intake in ob/ob mice; assay type: in vivo; conditions: 100 mg/kg oral twice a day, first week of the test, P<0.005, FIG. 1a
Description: (§1) In order to evaluate the anti-obesity activity of the inventive compound, B6.V-Lepob/J mice (laboratory animal team of Korea Research Institute of Chemical Technology) were used for tests and lean mice as a control. Ob/ob mice are model animals for insulin-independent diabetes, suitable for studying the effect of an anti-obesity drug.
(§2) 42 mice weighing 38.6±1.4 g were selected randomly from a pool of ob/ob mice (7-9 weeks old), and divided into groups of 7 mice each. The test was carried out at a constant temperature (24±0.5° C.) and humidity (55±5%) using ventilation system (10-12 times/hour), under a specific pathogen free (SPF) condition created in an automatic on-off cycle of 12 hours.
(§3) The groups were divided to a control group treated only with an excipient, a positive control group treated with fenofibrate, and test groups treated with each of the compounds of Examples 5, 62 and 65, at dosage 100 mg/10 ml/kg body weight. Each of the test and control compounds was diluted with 0.5% CMC to a concentration to match the above dosage, and administered orally using a syringe into the stomach twice a day (9:00 and 18:00) for a period of 4 weeks, and the following characteristics were measured.
1) General Symptoms and Observation of Dead Animal
The conditions, behavioral changes, addictive symptoms and the death rate were observed constantly during the test period.

ob/ob mice [2] = assay: Anti-obesity test: body weight measurement in ob/ob mice; assay type: in vivo; conditions: 100 mg/kg oral twice a day
Description: as §1, §2, §3
2) Body Weight Measurement
The average body weight of each group was measured every 3 days after the administration, and the changes in the average body weight and body weight gain (measured body weight—initial body weight) were analyzed.

ob/ob mice [3] = assay: Anti-obesity test: lipid metabolism-related materials and glucose in blood of ob/ob mice; assay type: in vivo; conditions: 28 days
Description: as §1, §2, §3
3) Measurement of Lipid Metabolism-Related Materials and Insulin Concentration in Blood
28 days after the administration, experimental mice were fasted for 16 hours, and the concentrations of lipid metabolism-related materials such as triglyceride, free fatty acid and cholesterol, and insulin in blood were measured. Specifically, a blood sample was collected from the ocular venous plexus of each mouse and centrifuged to separate plasma. The glucose (GLU), HDL-cholesterol (HDL), LDL-cholesterol (LDL), triglyceride (TG) and free fatty acid (NEFA) levels were measured by enzymatic assay using 2 kinds of Selectra (Vital Lab), an automatic biochemical analyzer, and the insulin concentration was measured by ELISA using an insulin detection kit (Shibayagi).

ob/ob mice [4] = assay: Oral glucose tolerance test (OGTT) in ob/ob mice; assay type: in vivo
Description: as §1, §2, §3
4) Oral Glucose Tolerance Test (OGTT)
28 days after the administration, each of the experimental mice was fasted for 16 hours, 2 g/kg of glucose was administered thereto, a blood sample was collected from the ocular venous plexus thereof at 0, 15, 30, 60 and 120 min from the administration, and the glucose concentration and AUC (area under the curve, Skrumsager et al., J Clin Pharmacol. 43, 1244-1256, 2003) were determined.

ob/ob mice [5] = assay: Anti-obesity test: dissection, fat weights in ob/ob mice; assay type: in vivo; conditions: ob/ob mice after completing all tests
Description: as §1, §2, §3
After completing all tests, each of the mice in test treated with the compounds of Examples 5 and 62 and the positive control group treated with fenofibrate was sacrificed, the whole blood, liver, muscle and white adipose tissue thereof were extracted. White adipose tissued was divided into visceral fat and subcutaneous fat, and the amounts of the total fats and liver tissue were weighed separately.

[6] = 100 mg/kg oral twice a day, fasted 16 hours, plasma

For `Cc1ccc(-c2nc(CCOc3cccc(CN(CC(=O)O)S(=O)(=O)N(C)C)c3)c(C)o2)cc1` [Example 62, [N—(N,N-dimethylamino)sulfonyl-N-[3-[2-[2-(4-methylphenyl)-5-methyloxazol-4-yl]ethoxy]benzyl]amino]acetic acid], the “Activity at 25 μM Step 1 293T cell” value (human PPAR α) was 2, the “daily feed intake compared to the control group” value (ob/ob mice [1]) was “significantly reduced” and the “body weight effect compared to the positive control group treated with fenofibrate” value (ob/ob mice [2]) was “improved effect”. The “change in the body weight gain compared to the control group” value (ob/ob mice [2]; at day 7 from the administration, P<0.01) was “evidently lower”, the “change in the average body weight compared to the control group” value (ob/ob mice [2]; at day 10 from the administration, P<0.01, P<0.005) was “markedly reduced” and the “GLU (glucose)” value (ob/ob mice [3]; [6]) was 190.4 ± 77.6 mg/dL. The “HDL (HDL-cholesterol)” value (ob/ob mice [3]; [6]) was 381.8 ± 40.1 mg/dL, the “LDL (LDL-cholesterol)” value (ob/ob mice [3]; [6]) was 37.8 ± 5.2 mg/dL and the “NEFA (free fatty acid)” value (ob/ob mice [3]; [6]) was 976 ± 238 UEq/l. The “TG (triglyceride)” value (ob/ob mice [3]; [6]) was 37.9 ± 6.6 mg/dL, the “GLU concentration compared to the control or positive control group” value (ob/ob mice [3]) was “much lower” and the “HDL concentration” value (ob/ob mice [3]) was “high”. The “triglyceride concentration compared to a control” value (ob/ob mice [3]; P<0.05) was “significantly lower”, the “total changes in the glucose concentration represented by AUC compared to the control group” value (ob/ob mice [4]; 2 g/kg glucose, 0-120 min, P<0.05, P<0.005 and P<0.01, FIG. 3b) was “much lower” and the “glucose concentration at 30 and 60 min after the glucose administration compared to the control group” value (ob/ob mice [4]; 2 g/kg glucose, P<0.01, P<0.05, FIG. 3a) was “significantly low”. The “glucose concentration during the fast compared to the control group” value (ob/ob mice [4]; ob/ob mice, 28 days, fasted 16 hours, P<0.05, FIG. 3c) was “significantly low”, the “weight of subcutaneous fat” value (ob/ob mice [5]) was “reduced” and the “weight of visceral fat” value (ob/ob mice [5]) was “reduced”. The “adiposity index (fat weight/(body weight—fat weight))” value (ob/ob mice [5]; FIG. 4b) was “reduced” and the total fat weight (ob/ob mice [5]; P<0.01, P<0.005, FIG. 4a) was “low”.
